{"source": "patent US6008188A", "about": "“Cytokine potentiator and pharmaceutical formulation for cytokine administration” (Kanebo Limited, priority 1994, dated 1999)", "key": {"[1]": {"tested_on": "Normal human fibroblasts [CCD45SK (ATCC CRL 1506)]", "test": "Response to βFGF: procollagenase production by normal human fibroblasts CCD45SK (Test Examples 1-3)", "assay_type": "cell-based", "conditions": "for activity at 1000 µM: Homo sapiens, Fibroblast, read-out: Response to βFGF Increment; for Procollagenase Production: mean ± SD, n = 3", "method": "In the following tests, the procollagenase production was quantified in terms of the collagenase activity as obtained through activation with trypsin.\nIt is known that βFGF promotes procollagenase production. In the following tests, therefore, the βFGF activity increment as attained by the compound added was calculated from the procollagenase production, relative to the control using purified water in place of the test compound.\nNormal human fibroblasts [CCD45SK (ATCC CRL 1506) as prepared from the skin of a person] were suspended at a cell density of 1×10^5 cells/ml in the MEM medium, comprising 10% (V/V) FBS and 1% (V/V) non-essential amino acids (produced by Dai-Nippon Pharmaceutical Co.). The suspended cells were seeded into each well of a 12-well plate in an amount of 0.8 ml/well (corresponding to 8×10^4 cells/well) and incubated in a saturated aqueous vapor with 5% CO2 at 37° C. […]\nAfter having been incubated for 24 hours, the culture medium was removed from the plate by suction, and the cells remained were washed twice with an MEM medium containing 0.6% (v/v) (as final concentration) of FBS. Then, the cells were fed with 0.8 ml of the solution prepared above added to the cells, which were incubated for 2 days.\nAfter the 2 days incubation, the culture medium was removed from the plate by suction, and the cells were fed with 0.8 ml of the solution and were further incubated for 2 days. This operation was repeated once again. Thus, the cells were processed in the medium containing the cytokine activity enhancer for 6 days in total.\nAfter the above-mentioned process, the culture medium was removed from the plate by suction, and the cells were fed with 0.8 ml of an MEM medium containing 3 ng/ml of βFGF (produced by Boehringer Manheim Co.) and 0.6% (V/V) FBS, and were incubated for 3 days to obtain a culture supernatant.\n3.5 ml of 10 mM Tris-HCl buffer [adjusted at pH 7.8 at 4° C., containing 1 mM calcium chloride and 0.05% (W/V) Brij-35] was added to 500 μl of the thus-obtained culture supernatant, and applied to CM-Sepharose CL-6B (trade name, produced by Pharmacia Co., having a bed volume of 0.5 ml) as previously equilibrated with the same buffer.\nNext, the inhibitor was removed through treatment with 0.5 ml of the same buffer as above but containing 125 mM sodium chloride (4 times in all, 2 ml of the buffer was used in total), and the procollagenase was recovered through treatment with 0.5 ml of the same buffer as above but containing 500 mM sodium chloride (4 times in all, 2 ml of the buffer was used in total). This was used as a test sample.\nThe test sample was suitably diluted with a buffer for measurement (mentioned above), 25 μl of the thus-diluted sample was mixed with 25 μl of the buffer, 20 μl of a trypsin solution (as prepared by adding trypsin, Type 12 (produced by Sigma Co.) to the buffer at a concentration of 1 mg/ml) was added thereto, and this was incubated at 35° C. for 5 minutes. Then, 30 μl of a soybean trypsin inhibitor solution (as prepared at a concentration of 3 mg/ml, using the buffer) was added to this to thereby inactivate the trypsin. The resulting solution is designated collagenase solution.\nUsing type I collagen as labeled with fluorescein isothiocyanate (hereinafter referred to as FITC) (this is an acetic acid solution of FITC-collagen having a concentration of 1 mg/ml; produced by Cosmo-Bio Co.), as a substrate solution, the collagenase activity (unit/ml) of the solution was measured according to the method of Nagai et al. (see Inflammations, Vol. 4, No. 2, p. 123, 1984). […] The procollagenase production (unit/ml of culture medium) was thus obtained and referred to as X1."}, "[2]": {"tested_on": "Normal human fibroblasts [CCD45SK (ATCC CRL 1506)]", "test": "Response to PDGF: procollagenase production by normal human fibroblasts (Test Example 11)", "assay_type": "cell-based", "conditions": "1 mM, 6 days, 30 ng/ml PDGF-BB", "method": "Normal human fibroblasts [CCD45SK (ATCC CRL 1506) as prepared from the skin of a person] were suspended at a cell density of 1×10^5 cells/ml in the MEM medium, comprising 10% (V/V) FBS and 1% (V/V) non-essential amino acids (produced by Dai-Nippon Pharmaceutical Co.). The suspended cells were seeded into each well of a 12-well plate in an amount of 0.8 ml/well (corresponding to 8×10^4 cells/well) and incubated in a saturated aqueous vapor with 5% CO2 at 37° C."}, "[3]": {"tested_on": "Japanese native, male house rabbits", "conditions": "rabbit, in vivo", "method": "Aqueous solutions of N-Methyl-L-Serine, Ethanolamine and N-Methylethanolamine that had been adjusted to have a pH of 7 with hydrochloric acid were used as test samples.\nUsing Japanese native, male house rabbits (body weight: about 3 kg), the test samples were tested according to the Draize method (see Appraisal of the Safety of Chemicals in Foods, Drugs and Cosmetics, p. 46, 1959, edited and published by the Deitorial Committee, Association of Food and Drug Officials of U.S.A.).\n24 hours after the last application, the tested area of each rabbit was checked to score the erythema, edema, scab and rhagades, if any, formed in the area.\nThe erythema score, the edema score, the scab score, and the rhagades score as referred to in Table 17 were summed up to obtain the cumulative stimulation score.\nNext, from the cumulative stimulation scores, obtained were the degrees of stimulation with N-Methyl-L-Serine, Ethanolamine and N-Methylethanolamine,according to the criteria shown in Table 18 below."}, "[4]": {"tested_on": "Japanese native, male house rabbits", "conditions": "rabbit, in vivo", "method": "Aqueous solutions of N-methyl-L-serine, ethanolamine and N-methylethanolamine that had been adjusted to have a pH 7 with hydrochloric acid were used as test samples.\nUsing Japanese native, male house rabbits (body weight: about 3 kg), the test samples were tested according to the above-mentioned the Draize method.\nPrecisely, the back of each rabbit was shaven and rubbed to form a scratched site (scratched skin). An adhesive tape for patch test (1.2×1.6 cm; Ribbon Aid, registered trade mane, produced by River Tape Chemicals Co.) as wetted with 0.1 ml of water, or 0.1 ml of an aqueous 1% (W/V) solution of the test compound was stuck onto the scratched skin and the normal skin. […] In addition, 48 hours after the peeling of the tape, the condition of the skin was also observed.\nThe scores as referred to in Table 21 were obtained, and the primary stimulation score was calculated according to the following equation.\nPrimary Stimulation Score=[(A+B)/2]+[(C+D)/2]+[(E+F)/2]+[(G+H)/2]\nNext, from the primary stimulation scores, obtained was the degree of stimulation with N-Methyl-L-Serine or Ethanolamine or N-Methylethanolamineaccording to the criteria shown in Table 22 below.", "remark": "listed apart in the source"}}}
{"smiles": "CN[C@@H](CO)C(=O)O", "note": "[Example 1, N-methyl-L-serine]", "values": [{"measurement": "concentration dependence of increase in procollagenase production / response to βFGF", "setting": "[1]; 0.01 to 10 mM", "value": "in a concentration-dependent manner"}, {"measurement": "activity at 1000 µM", "setting": "[1]; 144 h, Test Example 1, 1 mM, 6 days, 3 ng/ml βFGF, control (purified water) = 100", "value": 220, "unit": "%"}, {"measurement": "activity at 1000 µM", "setting": "[1]; Test Example 2, 0.01 mM, control = 100", "value": 100, "unit": "%"}, {"measurement": "activity at 1000 µM", "setting": "[1]; Test Example 2, 1.0 mM, control = 100", "value": 130, "unit": "%"}, {"measurement": "Procollagenase Production", "setting": "[1]; Test Example 1, 1 mM, 6 days, 3 ng/ml βFGF", "value": "15 ± 1.0", "unit": "unit/ml"}, {"measurement": "Procollagenase Production", "setting": "[1]; Test Example 2, 0.01 mM", "value": "15 ± 3.3", "unit": "unit/ml"}, {"measurement": "Procollagenase Production", "setting": "[1]; Test Example 2, 0.1 mM", "value": "17 ± 2.9", "unit": "unit/ml"}, {"measurement": "Procollagenase Production", "setting": "[1]; Test Example 2, 0.3 mM", "value": "24 ± 3.5", "unit": "unit/ml"}, {"measurement": "Procollagenase Production", "setting": "[1]; Test Example 2, 1.0 mM", "value": "19 ± 1.3", "unit": "unit/ml"}, {"measurement": "Procollagenase Production", "setting": "[1]; Test Example 2, 3.0 mM", "value": "26 ± 1.5", "unit": "unit/ml"}, {"measurement": "Procollagenase Production", "setting": "[1]; Test Example 2, 10 mM", "value": "32 ± 2.2", "unit": "unit/ml"}, {"measurement": "Procollagenase Production", "setting": "[2]; mean ± SD, n = 3", "value": "4.2 ± 2.0", "unit": "unit/ml"}, {"measurement": "activity at 1000 µM", "setting": "[2]; Homo sapiens, Fibroblast, 144 h, control = 100, read-out: Response to PDGF Increment", "value": 690, "unit": "%"}, {"measurement": "cumulative stimulation to the skin (in words)", "setting": "[3]", "value": "low"}, {"measurement": "Primary Stimulation Score", "setting": "[4]", "value": 0}, {"measurement": "stimulation to the skin (in words)", "setting": "[4]", "value": "low"}]}
